Measurements reported in US10221163B2 (priority 2015, dated 2019).
Read-outs that look alike come from different tables or passages of the source.

Experiments:
[1] = test system: Pseudomonas aeruginosa MB9798 vs MB9799; conditions: fold difference between efflux+ (MB9798) and efflux− (MB9799) strains; imipenem at 2 μg/mL
Summary of the method: (§1)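 Microbroth MIC tests in PAO1-background strains with fixed imipenem and/or ceftazidime, usually at the CLSI breakpoint, plus fixed class A/C β-lactamase inhibitor against AmpC. MBL inhibitor titrated; concentration restoring susceptibility recorded and compared as fold difference between efflux+ MB9798 and efflux− MB9799.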

[2] = molecular target: NDM-1 (Klebsiella pneumoniae, UniProt C7C422); experiment: biochemical; format: biochemical; conditions: fluorescence assay, CCF2-FA substrate, 1 pM enzyme, 2 hours at 25° C.; read-out: NDM-1 IC50
Summary of the method: (§2)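 Fluorescence assay of metallo-β-lactamase activity using CCF2-FA, a cephalosporin-linked 7-hydroxycoumarin–fluorescein substrate. Inhibitor, enzyme and substrate were incubated together for 2 hours at 25° C. IC50 came from a 4-parameter fit of inhibition versus inhibitor concentration.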

[3] = molecular target: IMP-1 (Serratia marcescens, UniProt P52699); experiment: biochemical; format: biochemical; conditions: fluorescence assay, CCF2-FA substrate, 2 pM enzyme, 2 hours at 25° C.; read-out: IMP-1 IC50
Summary of the method: as §2

[4] = test system: Pseudomonas aeruginosa efflux− (MB9799), IMP-1; format: cell-based; conditions: efflux− MB9799; imipenem at 2 μg/mL; in the presence of a class A, C, D serine β-lactamase inhibitor closely related to relebactam
Summary of the method: as §1

[5] = molecular target: VIM-1 (Pseudomonas aeruginosa (strain ATCC 15692 / DSM 22644 / CIP 104116 / JCM 14847 / LMG 12228 / 1C / PRS 101 / PAO1), UniProt A0A0F7KYQ8); experiment: biochemical; conditions: CCF2-FA substrate, 30 pM enzyme, 2 hours at 25° C.
Summary of the method: as §2

[6] = test system: Pseudomonas aeruginosa efflux+ (MB9798), IMP-1; format: cell-based; set-up: Concentration of metallo-β-lactamase inhibitor which restores susceptibility of efflux + (MB9798) strain to imipenem: unit not given here; conditions: efflux+ MB9798; imipenem at 2 μg/mL; in the presence of a class A, C, D serine β-lactamase inhibitor closely related to relebactam
Summary of the method: as §1

[7] = test system: Escherichia coli expressing NDM-1 (CLB30005, CLB30016); format: cell-based; conditions: NDM-1 strain, with imipenem 1 μg/ml, 95% inhibition of growth
Summary of the method: (§3)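 Clinical strains grown overnight on blood agar at 35°C, colonies suspended in saline, diluted 1:100 into 1.1×CAMHB. Test compound titrated with imipenem at 1 μg/ml; incubated 22–24 h at 35°C, growth read by absorbance.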

[8] = test system: Serratia marcescens expressing IMP-1 (CL5741); format: cell-based; conditions: IMP-1 strain CL5741, with imipenem 1 μg/ml, 95% inhibition of growth
Summary of the method: as §3

[9] = test system: Klebsiella pneumoniae expressing VIM-1 (IHMA599644); format: cell-based; conditions: VIM-1 strain IHMA599644, with imipenem 1 μg/ml, 95% inhibition of growth
Summary of the method: as §3

[10] = fluorescence assay, read-out: VIM-1 IC50

Chain of IMP-1 (P52699 whole entry, looked up, species assumed): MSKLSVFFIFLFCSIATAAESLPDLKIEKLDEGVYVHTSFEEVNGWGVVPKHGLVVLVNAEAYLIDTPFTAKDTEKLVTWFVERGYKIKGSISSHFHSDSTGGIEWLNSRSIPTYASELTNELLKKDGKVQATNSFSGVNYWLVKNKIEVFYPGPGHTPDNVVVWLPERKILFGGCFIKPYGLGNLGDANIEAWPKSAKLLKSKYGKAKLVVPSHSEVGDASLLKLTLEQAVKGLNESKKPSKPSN
Chain of NDM-1 (C7C422 whole entry, looked up, species assumed): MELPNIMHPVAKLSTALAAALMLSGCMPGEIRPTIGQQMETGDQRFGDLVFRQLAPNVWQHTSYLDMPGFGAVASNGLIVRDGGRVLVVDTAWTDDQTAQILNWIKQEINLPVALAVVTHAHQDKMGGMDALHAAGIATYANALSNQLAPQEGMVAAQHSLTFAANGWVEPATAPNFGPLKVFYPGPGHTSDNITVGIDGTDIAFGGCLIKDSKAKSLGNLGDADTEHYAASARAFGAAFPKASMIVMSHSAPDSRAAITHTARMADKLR

SMILES | Efflux ratio [1] | IC50 [2] [nM] | IC50 [3] [nM] | Concentration of metallo-β-lactamase inhibitor which restores susceptibility of efflux − (MB9799) strain to imipenem [4] | IC50 ([5]; VIM-1 IC50, fluorescence assay) [nM] | Concentration of metallo-β-lactamase inhibitor which restores susceptibility of efflux + (MB9798) strain to imipenem [6] | Escherichia coli MITC95 [7] [µM] | Serratia marcescens MITC95 [8] [µM] | Klebsiella pneumoniae MITC95 [9] [µM] | IC50 [5, 10] [nM]
NCCNC(=O)c1cc(Cl)cc(-c2ccc(S(=O)(=O)NCCN)c(S(N)(=O)=O)c2-c2nn[nH]n2)c1N [Example 447, 2-Amino-N-(2-aminoethyl)-4′-(N-(2-aminoethyl)sulfamoyl)-5-chloro-3′-sulfamoyl-2′-(2H-tetrazol-5-yl)-[1,1′-biphenyl]-3-carboxamide] | 2.00 | 0.646 | 1.6 | 0.7813 | 0.18 | 1.563 | 0.7813 | 0.7813 | 1.563 | 
Nc1nc2c(-c3ccc(S(=O)(=O)N[C@@H]4C[C@H]4N)c(S(N)(=O)=O)c3-c3nnn[nH]3)cccc2[nH]1 [Example 448, 4-(2-amino-1H-benzo[d]imidazol-4-yl)-N^1-((1R,2R)-2-aminocyclopropyl)-3-(1H-tetrazol-5-yl)benzene-1,2-disulfonamide] | 0.50 | 0.151 | 0.988 | 3.125 |  | 1.563 | 0.7813 | 1.563 | 6.25 | 0.557
CN(CCN)S(=O)(=O)c1ccc(-c2cccc3[nH]c(N)nc23)c(-c2nn[nH]n2)c1S(N)(=O)=O [Example 449, 4-(2-amino-1H-benzo[d]imidazol-4-yl)-N^1-(2-aminoethyl)-N^1-methyl-3-(2H-tetrazol-5-yl)benzene-1,2-disulfonamide] | 4.00 | 7.73 | 11.8 | 1.563 | 27.8 | 6.25 | 0.7813 | 1.563 | 12.5 | 
NCCNC(=O)c1cc(-c2ccc(S(=O)(=O)NCCN)c(S(N)(=O)=O)c2-c2nn[nH]n2)ccc1N [Example 451, 4-Amino-N-(2-aminoethyl)-4′-(N-(2-aminoethyl)sulfamoyl)-3′-sulfamoyl-2′-(2H-tetrazol-5-yl)-[1,1′-biphenyl]-3-carboxamide] | 2.00 | 1.7 | 4.02 | 0.7813 |  | 1.563 | 0.7813 | 0.7813 | 0.7813 | 0.557
NCCNS(=O)(=O)c1ccc(-c2ccccc2NC(=O)CN)c(-c2nn[nH]n2)c1S(N)(=O)=O [Example 452] | 4.00 | 1.72 | 6.21 | 1.563 |  | 6.25 | 3.125 | 3.125 | 6.25 | 0.994
NCCNS(=O)(=O)c1ccc(-c2cccc(NC(=O)[C@@H](N)CN)c2)c(-c2nn[nH]n2)c1S(N)(=O)=O [Example 453, (S)-2,3-Diamino-N-(4′-(N-(2-aminoethyl)sulfamoyl)-3′-sulfamoyl-2′-(2H-tetrazol-5-yl)-[1,1′-biphenyl]-3-yl)propanamide] | 2.00 | 0.87 | 3.52 | 1.563 |  | 3.125 | 1.563 | 3.125 | 3.125 | 0.244
